Measured values taken from ChEMBL document CHEMBL4602687, “Dual Binding to Orthosteric and Allosteric Sites Enhances the Anticancer Activity of a TRAP1-Targeting Drug” (J Med Chem, 2020).
Numbering of substitutions follows the chain as printed. Activity calls are given as the source filed them. The rule behind the calls is not given here.

Tests used:
[1] = target: T1, Heat shock protein 75 kDa, mitochondrial (Homo sapiens) (UniProt Q12931); experiment: Allosteric modulation of recombinant wild-type human TRAP1 ATPase activity expressed in Escherichia coli BL21 (DE3) assessed as increase in substrate Km at 5 uM preincubated for 0.5 hrs followed by varying levels of ATP addition and measured after 3 hrs using PiColorLock Gold reagent by colorimetric assay-based Lineweaver-Burk plot analysis relative to control
T1 sequence (whole entry): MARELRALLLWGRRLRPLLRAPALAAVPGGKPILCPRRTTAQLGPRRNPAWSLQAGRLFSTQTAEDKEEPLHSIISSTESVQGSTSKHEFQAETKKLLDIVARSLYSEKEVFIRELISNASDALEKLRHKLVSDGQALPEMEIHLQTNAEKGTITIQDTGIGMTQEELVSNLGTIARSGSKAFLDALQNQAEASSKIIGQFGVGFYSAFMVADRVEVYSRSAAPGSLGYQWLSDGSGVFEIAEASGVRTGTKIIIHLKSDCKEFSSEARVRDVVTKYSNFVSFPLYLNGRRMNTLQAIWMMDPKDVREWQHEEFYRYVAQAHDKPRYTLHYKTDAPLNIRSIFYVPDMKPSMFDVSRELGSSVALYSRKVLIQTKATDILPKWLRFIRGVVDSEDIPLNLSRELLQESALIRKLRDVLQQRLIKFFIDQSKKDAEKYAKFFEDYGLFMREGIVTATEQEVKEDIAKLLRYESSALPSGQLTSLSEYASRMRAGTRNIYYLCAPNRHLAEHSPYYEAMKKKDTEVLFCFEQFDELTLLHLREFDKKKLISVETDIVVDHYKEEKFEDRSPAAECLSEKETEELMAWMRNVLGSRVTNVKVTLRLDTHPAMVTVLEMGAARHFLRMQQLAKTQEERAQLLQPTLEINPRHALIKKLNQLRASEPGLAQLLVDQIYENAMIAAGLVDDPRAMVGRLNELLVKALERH

[2] = system: T2, Heat shock protein 75 kDa, mitochondrial (Homo sapiens), Q12931 [R114E,E403K]; experiment: Stimulation of recombinant […] human TRAP1 R114E/E403K mutant ATPase activity expressed in Escherichia coli BL21 (DE3) up to 20 uM preincubated for 0.5 hrs followed by ATP addition and measured after 3 hrs by PiColorLock Gold reagent based colorimetric assay
T2 sequence (whole entry): T1 sequence (whole entry) with R114E, E403K

[3] = system: T3, Heat shock protein 75 kDa, mitochondrial (Homo sapiens), Q12931 [R114E]; experiment: Stimulation of recombinant […] human TRAP1 R114E mutant ATPase activity expressed in Escherichia coli BL21 (DE3) up to 20 uM preincubated for 0.5 hrs followed by ATP addition and measured after 3 hrs by PiColorLock Gold reagent based colorimetric assay
T3 sequence (whole entry): T1 sequence (whole entry) with R114E

- fold change (FC) [1]: 3
- Activity [2]: Active
- Activity [3]: Active
SMILES: Nc1ncnc2c1nc(Sc1cc3c(cc1I)OCO3)n2CCCCCCCCCC[P+](c1ccccc1)(c1ccccc1)c1ccccc1
